Data published in PubChem BioAssay AID2060325 (Molecular Pharmacology Branch, DTP, NCI, 2025).
Where “and” joins values, the source holds several entries; their conditions need not be identical. Identical values can stand only once.

Tested on: SK-OV-3 multi-cell spheroids, viability
Assay: Anticancer human tumor SK-OV-3 cell line growth inhibition [IpAb];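 for viability, T/C: viability read after seven days of drug exposure; percent of DMSO vehicle control luminescence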
Settings: for viability, T/C: stronger effect = lower value
Source text: Combinatorial screen of targeted agents with ipatasertib and abemaciclib in multi-cell type tumor spheroids
A high-throughput screen of multi-cell type tumor spheroids was designed to identify active combinations of targeted small molecules and ipatasertib or abemaciclib. Complex spheroids include a stromal component modeled by human endothelial cells (HUVEC) and fibroblasts modeled by human mesenchymal stem cells (MSCs). The concentration ranges selected for each drug and investigational agent were based upon clinically achievable concentrations if the clinical Cmax of the agent was known.
Compounds. The drugs and investigational agents: ipatasertib (NSC767898), abemaciclib(NSC768073), selumetinib (NSC741078), trametinib (758246), adavosertib (NSC754352), everolimus (NSC733504), sapanisertib (NSC764658), vemurafenib (NSC761431), venetoclax (NSC766270), copanlisib (NSC809693), apelisib (NSC765974), palbociblib (NSC758247), vemurafenib (NSC761431), dabrafenib (NSC764134), ravoxertinib (NSC781343), BMS-387032 (NSC767048), sotorasib (NSC818433), talazoparib (NSC767125) and afursertib (NSC778305), were obtained from the National Cancer Institute (NCI) Developmental Therapeutics Program Chemical Repository. The FDA-approved anticancer drug set is available from the NCI Developmental Therapeutics Program. […] The stock solutions were prepared in dimethyl sulfoxide (DMSO, Sigma-Aldrich, St. Louis, MO, cat. D2650) at 800-fold the tested concentration and stored at -70 degrees C prior to their use. All drugs and investigational agents were tested over a range starting from a high concentration at or near the clinical Cmax and decreasing in half-log increments. If the clinical Cmax for an agent had not been determined, the highest concentration tested was 10 microM.
NCI60 Cell Culture. NCI60 cell lines were obtained from the NCI Developmental Therapeutics Program Tumor Repository. For each lot of cells, the Repository performed Applied Biosystems AmpFLSTR Identifiler testing with PCR amplification to confirm consistency with the published Identifier STR profile for each cell line. Cells were kept in continuous culture for no more than 20 passages. The optimal seeding densities for each of the cell lines at each time point assessed were determined prior to performing the concentration response studies. Briefly, the NCI60 human tumor lines were grown as monolayers in RPMI 1640 medium supplemented with 10% FBS and 2 mmol/L L-glutamine.
An additional 9 lines were from the NCI60 cell line panel including MDA-MB-231 breast carcinoma, MDA-MB-468 breast carcinoma, MCF7 breast carcinoma, Hs578T breast carcinoma, MALME-3M melanoma, SK-MEL-2 melanoma, SK-OV-3 ovarian carcinoma, DU-145 prostate carcinoma, PC-3 prostate carcinoma, all cell lines along with major genetic alterations are listed on Table 2. Pooled donor human umbilical vein endothelial cells (HUVEC, Lonza, cat. CC-2519) and human mesenchymal stem cells (hMSC, Lonza, cat. PT-2501) were purchased from Lonza (Walkersville, MD).
PDMR cell lines were grown in complete medium (DC medium): Dulbecco's modified Eagle's medium (DMEM)/F12 supplemented with 5% fetal bovine serum (FBS), 2 mM L-glutamine, 100 U/mL penicillin and 100 µg/ml streptomycin, 0.4 µg/ml hydrocortisone, 10 ng/ml epidermal growth factor (EGF) recombinant human protein, 24 µg/mL adenine, and 0.1 mg/mL primocin. During culture from frozen stock vials, PDMR cells were cultured in the same medium containing 10 µM Y-27632 (see Table 3). The PDCs were cultured in complete DMEM/F12 media without 10 microM Y-27632 dihydrochloride for at least two passages prior to the screen. The pooled donor HUVEC and hMSC were cultured in endothelial cell growth medium 2 (PromoCell, Heidelberg, Germany, cat. C-22011) and mesenchymal stem cell growth medium 2 (PromoCell, cat. C-28009), respectively. For all experiments, HUVEC and hMSC were used at passages </=5.
[…]

`Cc1nc(NC(=O)N2CCCC2C(N)=O)sc1-c1ccnc(C(C)(C)C(F)(F)F)c1` (stereo not given) was tested, and the viability, T/C (compound 0.0316 µM) was 91.9% and 91.3%, the viability, T/C (compound 0.1 µM) was 78.5% and 80.2% and the viability, T/C (compound 0.316 µM) was 47.3% and 49%. The viability, T/C (compound 1 µM) was 20.7% and 26.9%, the viability, T/C (compound 3.16 µM) was 10.9% and 10.7% and the viability, T/C (compound 10 µM) was 5.21% and 4.93%. The IC50 (curve of compound) was 291 nM and 337 nM.
`Cn1cnc2c(F)c(Nc3ccc(Br)cc3Cl)c(C(=O)NOCCO)cc21` was tested, and the viability, T/C (compound 0.00949 µM) was 96% and 97.7%, the viability, T/C (compound 0.03 µM) was 106% and 99.9% and the viability, T/C (compound 0.0949 µM) was 98% and 112%. The viability, T/C (compound 0.3 µM) was 104% and 108%, the viability, T/C (compound 0.949 µM) was 73.2% and 80.4% and the viability, T/C (compound 3 µM) was 39.5% and 29.2%. The IC50 (curve of compound) was 2100 nM and 1880 nM.
In the case of `Cn1ncc(Cl)c1-c1cc(C(=O)NC(CN)Cc2cccc(F)c2)sc1Cl` (stereo not given), the viability, T/C (compound 0.0316 µM) is reported as 73.4% and 80.3%, the viability, T/C (compound 0.1 µM) is reported as 52.8% and 48.3% and the viability, T/C (compound 0.316 µM) is reported as 27.5% and 26.4%. For the same compound, the viability, T/C (compound 1 µM) was 16.1% and 19%, the viability, T/C (compound 3.16 µM) was 8.76% and 8.97% and the viability, T/C (compound 10 µM) was 0.31% and 1.17%. The IC50 (curve of compound) was 106 nM and 96.1 nM.
`Cn1nccc1Nc1nccc(-c2ccn(C(CO)c3ccc(Cl)c(F)c3)c(=O)c2)n1` (stereo not given) was tested, and the viability, T/C (compound 0.0316 µM) was 101% and 98.5%, the viability, T/C (compound 0.1 µM) was 103% and 108% and the viability, T/C (compound 0.316 µM) was 108% and 116%. For the same compound, the viability, T/C (compound 1 µM) was 126%, the viability, T/C (compound 3.16 µM) was 94.8% and 100% and the viability, T/C (compound 10 µM) was 52.2% and 48.9%. For the same compound, the IC50 (curve of compound) was > 10000 nM and 9730 nM.
With `Cn1ncnc1[C@H]1c2n[nH]c(=O)c3cc(F)cc(c23)N[C@@H]1c1ccc(F)cc1` the viability, T/C (compound 0.000316 µM) was 108% and 97.8%, the viability, T/C (compound 0.001 µM) was 101% and 102% and the viability, T/C (compound 0.00316 µM) was 101% and 98.3%. The viability, T/C (compound 0.01 µM) was 98.5% and 88.4%, the viability, T/C (compound 0.0316 µM) was 87.8% and 86.8% and the viability, T/C (compound 0.1 µM) was 73.5% and 68.5%. The IC50 (curve of compound) was over 100 nM.
Compound `Cn1cnc2c(F)c(Nc3ccc(Br)cc3Cl)c(C(=O)NOCCO)cc21` + CC(C)NCC(C(=O)N1CCN(c2ncnc3c2C(C)CC3O)CC1)c1ccc(Cl)cc1 has an IC50 (curve of first compound, second compound 0.1 µM) of 164 nM, an IC50 (curve of first compound, second compound 0.316 µM) of under 9.49 nM and an IC50 (curve of first compound, second compound 1 µM) of under 9.49 nM. It also gave an IC50 (curve of first compound, second compound 3.16 µM) of under 9.49 nM, an IC50 (curve of first compound, second compound 10 µM) of under 9.49 nM and a viability, T/C (second compound 0.1 µM, first compound 0.00949 µM) of 61.9%. It also gave a viability, T/C (second compound 0.1 µM, first compound 0.03 µM) of 62%, a viability, T/C (second compound 0.1 µM, first compound 0.0949 µM) of 49.1% and a viability, T/C (second compound 0.1 µM, first compound 0.3 µM) of 48%. It also gave a viability, T/C (second compound 0.1 µM, first compound 0.949 µM) of 35.8%, a viability, T/C (second compound 0.1 µM, first compound 3 µM) of 19.7% and a viability, T/C (second compound 0.316 µM, first compound 0.00949 µM) of 33.9%. The viability, T/C (second compound 0.316 µM, first compound 0.03 µM) was 30.4%, the viability, T/C (second compound 0.316 µM, first compound 0.0949 µM) was 25.8% and the viability, T/C (second compound 0.316 µM, first compound 0.3 µM) was 21.6%. The viability, T/C (second compound 0.316 µM, first compound 0.949 µM) was 18.6%, the viability, T/C (second compound 0.316 µM, first compound 3 µM) was 10.3% and the viability, T/C (second compound 1 µM, first compound 0.00949 µM) was 19.6%. It also gave a viability, T/C (second compound 1 µM, first compound 0.03 µM) of 16.7%, a viability, T/C (second compound 1 µM, first compound 0.0949 µM) of 15.2% and a viability, T/C (second compound 1 µM, first compound 0.3 µM) of 11.8%. The viability, T/C (second compound 1 µM, first compound 0.949 µM) was 9.36%, the viability, T/C (second compound 1 µM, first compound 3 µM) was 4.86% and the viability, T/C (second compound 3.16 µM, first compound 0.00949 µM) was 13.5%. It also gave a viability, T/C (second compound 3.16 µM, first compound 0.03 µM) of 11.4%, a viability, T/C (second compound 3.16 µM, first compound 0.0949 µM) of 9.44% and a viability, T/C (second compound 3.16 µM, first compound 0.3 µM) of 9.1%. The viability, T/C (second compound 3.16 µM, first compound 0.949 µM) was 6.43%, the viability, T/C (second compound 3.16 µM, first compound 3 µM) was 3.45% and the viability, T/C (second compound 10 µM, first compound 0.00949 µM) was 6.91%. For the same compound, the viability, T/C (second compound 10 µM, first compound 0.03 µM) was 7.44%, the viability, T/C (second compound 10 µM, first compound 0.0949 µM) was 7.64% and the viability, T/C (second compound 10 µM, first compound 0.3 µM) was 5.26%. For the same compound, the viability, T/C (second compound 10 µM, first compound 0.949 µM) was 4.92% and the viability, T/C (second compound 10 µM, first compound 3 µM) was 2.28%.
